Key:
Estrogen receptor = target: T1, Estrogen receptor (Homo sapiens, UniProt P03372)
T1 sequence (P03372 whole entry): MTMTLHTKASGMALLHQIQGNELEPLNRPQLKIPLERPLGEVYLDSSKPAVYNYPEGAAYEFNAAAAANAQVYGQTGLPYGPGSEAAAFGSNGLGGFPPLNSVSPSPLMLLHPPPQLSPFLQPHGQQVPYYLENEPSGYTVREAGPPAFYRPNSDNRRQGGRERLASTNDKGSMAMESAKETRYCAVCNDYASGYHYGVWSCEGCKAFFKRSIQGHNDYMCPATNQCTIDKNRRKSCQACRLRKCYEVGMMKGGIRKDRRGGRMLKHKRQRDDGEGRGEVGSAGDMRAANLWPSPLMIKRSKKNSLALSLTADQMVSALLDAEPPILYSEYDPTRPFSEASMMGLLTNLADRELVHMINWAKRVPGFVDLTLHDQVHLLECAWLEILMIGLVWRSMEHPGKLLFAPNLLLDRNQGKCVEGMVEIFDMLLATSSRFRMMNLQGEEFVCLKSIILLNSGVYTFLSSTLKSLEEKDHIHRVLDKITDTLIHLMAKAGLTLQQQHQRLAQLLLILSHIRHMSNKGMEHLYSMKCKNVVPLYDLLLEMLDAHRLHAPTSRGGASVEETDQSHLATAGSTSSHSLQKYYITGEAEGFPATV

[1] = target: 5-hydroxytryptamine receptor 2B (Homo sapiens, UniProt P41595); format: functional, cell-based
Sequence of 5-hydroxytryptamine receptor 2B (P41595 whole entry): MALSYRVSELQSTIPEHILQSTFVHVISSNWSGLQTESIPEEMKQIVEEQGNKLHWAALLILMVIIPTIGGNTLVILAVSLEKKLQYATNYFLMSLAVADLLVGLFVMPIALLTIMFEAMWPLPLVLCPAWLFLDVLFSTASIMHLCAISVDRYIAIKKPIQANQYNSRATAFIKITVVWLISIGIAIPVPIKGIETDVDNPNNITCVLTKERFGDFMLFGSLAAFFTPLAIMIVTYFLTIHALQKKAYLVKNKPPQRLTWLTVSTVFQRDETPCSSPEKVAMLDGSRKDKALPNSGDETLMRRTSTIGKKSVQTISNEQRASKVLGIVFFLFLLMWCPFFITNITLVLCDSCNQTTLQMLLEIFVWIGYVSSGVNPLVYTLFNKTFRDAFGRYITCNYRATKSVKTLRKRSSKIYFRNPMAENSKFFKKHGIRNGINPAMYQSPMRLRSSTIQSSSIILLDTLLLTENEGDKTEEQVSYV

[2] = target: T2, 5-hydroxytryptamine receptor 1A (Homo sapiens, UniProt P08908)
T2 sequence (P08908 whole entry): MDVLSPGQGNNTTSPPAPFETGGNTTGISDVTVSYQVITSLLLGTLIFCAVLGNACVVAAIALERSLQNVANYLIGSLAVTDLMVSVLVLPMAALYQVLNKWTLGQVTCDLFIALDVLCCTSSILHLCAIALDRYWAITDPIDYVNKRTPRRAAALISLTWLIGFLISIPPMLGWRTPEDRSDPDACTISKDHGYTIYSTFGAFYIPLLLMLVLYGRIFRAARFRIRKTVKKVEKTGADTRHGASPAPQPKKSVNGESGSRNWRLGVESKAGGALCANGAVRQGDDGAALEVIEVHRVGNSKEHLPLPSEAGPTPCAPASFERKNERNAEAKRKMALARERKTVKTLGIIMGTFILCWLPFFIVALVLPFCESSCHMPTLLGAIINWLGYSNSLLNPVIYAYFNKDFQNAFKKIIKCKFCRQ

D(3) dopamine receptor = D(3) dopamine receptor (Homo sapiens, UniProt P35462)
Sequence of D(3) dopamine receptor (P35462 whole entry): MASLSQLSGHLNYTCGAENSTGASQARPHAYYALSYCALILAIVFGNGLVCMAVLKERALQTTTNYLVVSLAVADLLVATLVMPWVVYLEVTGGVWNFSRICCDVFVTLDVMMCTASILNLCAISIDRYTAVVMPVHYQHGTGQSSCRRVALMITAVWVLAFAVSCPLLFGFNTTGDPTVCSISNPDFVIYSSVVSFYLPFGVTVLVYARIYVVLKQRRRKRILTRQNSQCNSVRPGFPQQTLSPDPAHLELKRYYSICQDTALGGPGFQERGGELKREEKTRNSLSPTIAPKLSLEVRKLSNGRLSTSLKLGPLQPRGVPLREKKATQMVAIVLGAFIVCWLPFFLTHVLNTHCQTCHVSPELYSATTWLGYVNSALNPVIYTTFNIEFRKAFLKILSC

Androgen receptor = target: T3, Androgen receptor (Homo sapiens, UniProt P10275)
T3 sequence (P10275 whole entry): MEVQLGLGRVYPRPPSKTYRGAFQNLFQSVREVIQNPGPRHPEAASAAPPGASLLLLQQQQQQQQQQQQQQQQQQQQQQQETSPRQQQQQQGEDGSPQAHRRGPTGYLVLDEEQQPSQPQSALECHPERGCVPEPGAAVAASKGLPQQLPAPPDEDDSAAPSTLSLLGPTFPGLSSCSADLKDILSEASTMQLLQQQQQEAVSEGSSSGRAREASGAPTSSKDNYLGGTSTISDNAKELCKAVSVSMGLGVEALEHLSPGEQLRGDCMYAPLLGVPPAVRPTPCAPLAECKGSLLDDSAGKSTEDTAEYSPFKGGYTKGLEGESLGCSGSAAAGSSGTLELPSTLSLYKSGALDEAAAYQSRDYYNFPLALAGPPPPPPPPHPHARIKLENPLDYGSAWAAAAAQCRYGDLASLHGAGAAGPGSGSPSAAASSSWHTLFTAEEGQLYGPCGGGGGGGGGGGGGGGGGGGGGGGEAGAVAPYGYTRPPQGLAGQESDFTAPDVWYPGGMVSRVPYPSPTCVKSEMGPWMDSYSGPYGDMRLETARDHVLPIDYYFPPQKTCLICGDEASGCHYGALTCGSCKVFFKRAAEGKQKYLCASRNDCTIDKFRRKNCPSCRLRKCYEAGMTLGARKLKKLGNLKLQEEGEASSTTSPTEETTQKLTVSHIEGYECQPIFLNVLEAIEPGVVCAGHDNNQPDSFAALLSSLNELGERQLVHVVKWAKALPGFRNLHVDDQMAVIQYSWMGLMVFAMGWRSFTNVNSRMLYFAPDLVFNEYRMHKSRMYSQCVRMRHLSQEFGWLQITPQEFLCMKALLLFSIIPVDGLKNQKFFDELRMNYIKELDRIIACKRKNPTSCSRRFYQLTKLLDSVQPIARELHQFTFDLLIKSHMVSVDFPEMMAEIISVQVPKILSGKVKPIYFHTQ

[3] = target: T4, Muscarinic acetylcholine receptor M1 (Homo sapiens, UniProt P11229); format: functional, cell-based
T4 sequence (P11229 whole entry): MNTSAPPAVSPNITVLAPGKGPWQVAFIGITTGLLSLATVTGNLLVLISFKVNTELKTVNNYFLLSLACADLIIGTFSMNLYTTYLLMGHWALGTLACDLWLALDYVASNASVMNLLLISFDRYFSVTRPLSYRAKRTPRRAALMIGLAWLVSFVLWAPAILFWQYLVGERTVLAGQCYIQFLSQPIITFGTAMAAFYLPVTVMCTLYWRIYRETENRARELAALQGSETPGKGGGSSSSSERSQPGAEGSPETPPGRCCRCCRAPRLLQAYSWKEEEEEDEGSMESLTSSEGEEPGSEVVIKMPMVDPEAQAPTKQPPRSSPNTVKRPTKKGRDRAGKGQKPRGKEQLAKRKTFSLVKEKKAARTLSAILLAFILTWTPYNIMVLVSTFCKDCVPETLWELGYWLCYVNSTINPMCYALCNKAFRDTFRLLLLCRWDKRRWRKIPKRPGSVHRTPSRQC

[4] = target: Sodium-dependent serotonin transporter (Homo sapiens, UniProt P31645)
Sequence of Sodium-dependent serotonin transporter (P31645 whole entry): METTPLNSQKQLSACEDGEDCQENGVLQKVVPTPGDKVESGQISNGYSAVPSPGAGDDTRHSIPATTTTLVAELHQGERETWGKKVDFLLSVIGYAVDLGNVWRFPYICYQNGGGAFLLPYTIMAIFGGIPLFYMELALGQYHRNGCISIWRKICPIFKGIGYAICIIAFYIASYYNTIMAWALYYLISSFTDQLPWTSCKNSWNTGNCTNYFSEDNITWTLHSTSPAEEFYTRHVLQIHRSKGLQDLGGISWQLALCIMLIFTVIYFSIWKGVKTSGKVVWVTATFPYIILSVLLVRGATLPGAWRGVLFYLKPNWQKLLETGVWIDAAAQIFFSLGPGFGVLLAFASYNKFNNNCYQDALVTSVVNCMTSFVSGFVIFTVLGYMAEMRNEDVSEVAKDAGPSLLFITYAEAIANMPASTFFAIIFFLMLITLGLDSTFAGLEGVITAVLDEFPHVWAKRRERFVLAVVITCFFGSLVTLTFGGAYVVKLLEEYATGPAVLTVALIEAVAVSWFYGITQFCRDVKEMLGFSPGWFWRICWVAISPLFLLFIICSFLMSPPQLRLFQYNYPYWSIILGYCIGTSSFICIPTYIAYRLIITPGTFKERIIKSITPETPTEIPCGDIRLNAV

[5] = target: Gamma-aminobutyric acid receptor subunit alpha-1 (Rattus norvegicus, UniProt P62813)
Sequence of Gamma-aminobutyric acid receptor subunit alpha-1 (P62813 whole entry): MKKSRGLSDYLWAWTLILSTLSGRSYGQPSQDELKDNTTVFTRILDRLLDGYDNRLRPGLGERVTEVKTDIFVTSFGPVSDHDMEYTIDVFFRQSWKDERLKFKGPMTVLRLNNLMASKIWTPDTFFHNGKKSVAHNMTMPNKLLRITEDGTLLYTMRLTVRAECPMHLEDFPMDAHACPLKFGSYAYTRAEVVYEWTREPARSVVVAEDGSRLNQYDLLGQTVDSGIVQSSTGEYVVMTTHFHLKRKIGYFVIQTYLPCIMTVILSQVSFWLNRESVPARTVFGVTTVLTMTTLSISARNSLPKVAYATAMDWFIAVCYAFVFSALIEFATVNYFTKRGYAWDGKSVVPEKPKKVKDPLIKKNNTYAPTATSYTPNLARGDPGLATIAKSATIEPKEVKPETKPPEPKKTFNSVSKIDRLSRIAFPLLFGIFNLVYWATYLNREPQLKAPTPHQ

[6] = target: Gamma-aminobutyric acid receptor subunit alpha-1/alpha-2/beta-2/gamma-2 (Homo sapiens, UniProt P14867+P18507+P47869+P47870); format: protein-complex assay
Sequence of Gamma-aminobutyric acid receptor subunit alpha-1/alpha-2/beta-2/gamma-2 (P14867 whole entry): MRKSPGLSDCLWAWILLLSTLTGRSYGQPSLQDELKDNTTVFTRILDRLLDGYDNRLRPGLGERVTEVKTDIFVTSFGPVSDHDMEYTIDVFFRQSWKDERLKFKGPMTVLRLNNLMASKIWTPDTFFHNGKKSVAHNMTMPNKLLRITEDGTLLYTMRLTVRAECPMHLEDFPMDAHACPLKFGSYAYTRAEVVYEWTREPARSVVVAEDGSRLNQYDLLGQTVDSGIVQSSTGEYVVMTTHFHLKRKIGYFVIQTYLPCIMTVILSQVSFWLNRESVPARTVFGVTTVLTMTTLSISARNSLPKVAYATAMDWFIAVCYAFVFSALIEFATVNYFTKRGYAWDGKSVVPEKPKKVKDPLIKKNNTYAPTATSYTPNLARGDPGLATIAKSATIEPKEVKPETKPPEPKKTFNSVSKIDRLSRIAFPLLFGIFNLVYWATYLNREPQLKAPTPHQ
Sequence of Gamma-aminobutyric acid receptor subunit alpha-1/alpha-2/beta-2/gamma-2 (P47870 whole entry): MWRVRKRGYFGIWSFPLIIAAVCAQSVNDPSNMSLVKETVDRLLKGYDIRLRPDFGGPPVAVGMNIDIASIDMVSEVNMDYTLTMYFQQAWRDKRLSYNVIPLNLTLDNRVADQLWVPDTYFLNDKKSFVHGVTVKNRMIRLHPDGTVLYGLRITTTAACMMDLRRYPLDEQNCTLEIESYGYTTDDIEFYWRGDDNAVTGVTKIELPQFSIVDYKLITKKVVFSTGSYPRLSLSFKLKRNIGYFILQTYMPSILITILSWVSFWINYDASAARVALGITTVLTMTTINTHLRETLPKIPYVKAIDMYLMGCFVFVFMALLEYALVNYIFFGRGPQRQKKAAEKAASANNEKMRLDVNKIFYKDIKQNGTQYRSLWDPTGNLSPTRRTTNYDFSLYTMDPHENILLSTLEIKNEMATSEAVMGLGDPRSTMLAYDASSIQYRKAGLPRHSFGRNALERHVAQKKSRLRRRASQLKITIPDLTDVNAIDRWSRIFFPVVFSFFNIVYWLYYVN
Sequence of Gamma-aminobutyric acid receptor subunit alpha-1/alpha-2/beta-2/gamma-2 (P18507 whole entry): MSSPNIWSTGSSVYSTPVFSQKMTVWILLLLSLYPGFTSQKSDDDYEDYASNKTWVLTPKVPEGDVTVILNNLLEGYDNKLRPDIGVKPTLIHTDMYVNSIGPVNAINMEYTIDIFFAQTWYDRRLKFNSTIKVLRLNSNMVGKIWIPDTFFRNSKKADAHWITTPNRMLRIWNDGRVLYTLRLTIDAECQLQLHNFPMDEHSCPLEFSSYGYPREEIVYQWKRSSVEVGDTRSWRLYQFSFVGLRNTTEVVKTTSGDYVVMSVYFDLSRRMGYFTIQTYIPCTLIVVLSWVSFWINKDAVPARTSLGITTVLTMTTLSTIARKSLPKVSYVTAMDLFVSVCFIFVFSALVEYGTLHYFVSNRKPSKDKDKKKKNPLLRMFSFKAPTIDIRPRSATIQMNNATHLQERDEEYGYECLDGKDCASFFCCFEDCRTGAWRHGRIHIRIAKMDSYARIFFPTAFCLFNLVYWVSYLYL
Sequence of Gamma-aminobutyric acid receptor subunit alpha-1/alpha-2/beta-2/gamma-2 (P47869 whole entry): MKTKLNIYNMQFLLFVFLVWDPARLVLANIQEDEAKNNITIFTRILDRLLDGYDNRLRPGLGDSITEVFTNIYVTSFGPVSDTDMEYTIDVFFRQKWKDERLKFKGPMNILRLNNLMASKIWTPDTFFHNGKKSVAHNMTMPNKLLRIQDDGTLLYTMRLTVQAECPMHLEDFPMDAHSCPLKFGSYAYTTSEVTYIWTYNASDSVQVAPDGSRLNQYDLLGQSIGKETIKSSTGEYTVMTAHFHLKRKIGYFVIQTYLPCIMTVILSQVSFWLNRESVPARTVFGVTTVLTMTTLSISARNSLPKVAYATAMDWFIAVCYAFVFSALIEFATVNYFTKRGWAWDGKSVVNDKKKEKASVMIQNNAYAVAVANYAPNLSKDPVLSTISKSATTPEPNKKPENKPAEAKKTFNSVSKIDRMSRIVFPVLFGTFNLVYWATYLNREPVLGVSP
Also: assay procedure not described here.

Row | Compound | AC50 (Estrogen receptor) | AC50 [1] | AC50 [2] | AC50 (D(3) dopamine receptor) | AC50 (Androgen receptor) | AC50 [3] | AC50 [4] | AC50 [5] | AC50 [6]
1 | OC(c1ccccc1)(c1ccccc1)C12CC[N+](CCOCc3ccccc3)(CC1)CC2 | > 30 µM | > 30 µM | > 30 µM | > 30 µM | > 30 µM | > 30 µM | 0.302 µM | > 30 µM | –
2 | N=C1CCCN1Cc1[nH]c(=O)[nH]c(=O)c1Cl | > 30 µM | > 30 µM | > 30 µM | – | > 30 µM | > 30 µM | > 30 µM | > 30 µM | –
3 | CC1=C(/C=C/C(C)=C/C=C/C(C)=C/C=C/C=C(C)/C=C/C=C(C)/C=C/C2=C(C)CCCC2(C)C)C(C)(C)CCC1 [BETA CAROTENE] | > 30 µM | > 30 µM | > 30 µM | 20.8 µM | > 30 µM | > 30 µM | > 30 µM | > 30 µM | –
4 | CC(=O)OCC1=C(C(=O)O)N2C(=O)[C@@H](NC(=O)[C@H](N)c3ccccc3)[C@H]2SC1 [CEPHALOGLYCIN] | > 30 µM | > 30 µM | > 30 µM | > 30 µM | > 30 µM | > 30 µM | > 30 µM | > 30 µM | –
5 | CC(C)(C)CC(C)(C)c1ccc(O)c(Cc2ccc(Cl)cc2Cl)c1 [CLOFOCTOL] | 8.45 µM | > 30 µM | > 30 µM | 1.48 µM | 14.9 µM | > 30 µM | 5.43 µM | > 30 µM | –
6 | CN1CCN(C2=Nc3ccccc3Sc3ccc(Cl)cc32)CC1 [CLOTHIAPINE] | – | > 30 µM | 12.1 µM | 0.0061 µM | > 30 µM | > 10 µM | 4.87 µM | > 30 µM | –
7 | CCOc1ccc(Cc2cc([C@@H]3O[C@H](CO)[C@@H](O)[C@H](O)[C@H]3O)ccc2Cl)cc1 [DAPAGLIFLOZIN] | > 30 µM | > 30 µM | > 30 µM | > 30 µM | > 30 µM | > 30 µM | – | > 30 µM | –
8 | CC(=O)OCC(=O)[C@@]1(O)CC[C@H]2[C@@H]3CCC4=CC(=O)C=C[C@]4(C)[C@@]3(Cl)[C@@H](Cl)C[C@@]21C [DICHLORISONE ACETATE] | > 30 µM | > 30 µM | > 30 µM | > 30 µM | 0.128 µM | > 30 µM | > 30 µM | > 30 µM | –
9 | CC[C@H]1CN2CC[C@H]1C[C@H]2[C@H](O)c1ccnc2ccc(OC)cc12 [HYDROQUININE] | > 30 µM | > 30 µM | > 30 µM | > 30 µM | > 30 µM | > 30 µM | 3.95 µM | > 30 µM | –
10 | O=C(O)c1ccccc1C(=O)Nc1ccc(S(=O)(=O)Nc2nccs2)cc1 [PHTHALYLSULFATHIAZOLE] | – | > 30 µM | > 10 µM | > 30 µM | > 30 µM | > 30 µM | > 30 µM | > 30 µM | –
11 | COc1cc([C@@H]2c3cc4c(cc3[C@H](O)[C@H]3COC(=O)[C@H]23)OCO4)cc(OC)c1OC [PODOFILOX] | – | > 30 µM | > 30 µM | > 30 µM | > 30 µM | – | – | – | > 30 µM
12 | O=[N+]([O-])c1cn2c(n1)OC[C@@H](OCc1ccc(OC(F)(F)F)cc1)C2 [PRETOMANID] | > 30 µM | > 30 µM | > 30 µM | > 30 µM | > 30 µM | > 30 µM | > 30 µM | > 30 µM | –
13 | OC(CCN1CCCCC1)(c1ccccc1)c1ccccc1 [PRIDINOL] | > 30 µM | > 30 µM | 29.8 µM | – | > 30 µM | > 30 µM | > 30 µM | > 30 µM | –
14 | O=C(Oc1ccc2c(c1)CCCN2C(=O)C(Cl)Cl)c1ccco1 [QUINFAMIDE] | 20.3 µM | > 30 µM | > 30 µM | > 30 µM | > 30 µM | > 30 µM | > 30 µM | > 30 µM | –
15 | Nc1ccc(S(=O)(=O)c2cnc(N)s2)cc1 [THIAZOLSULFONE] | > 30 µM | > 30 µM | > 30 µM | > 30 µM | > 30 µM | > 30 µM | > 30 µM | > 30 µM | –
16 | Nc1nc2nc[nH]c2c(=S)[nH]1 [THIOGUANINE] | > 30 µM | > 30 µM | > 30 µM | > 30 µM | > 30 µM | – | – | > 30 µM | –
17 | CCCCS(=O)(=O)N[C@@H](Cc1ccc(OCCCCC2CCNCC2)cc1)C(=O)O [TIROFIBAN] | > 30 µM | > 30 µM | > 30 µM | > 30 µM | > 30 µM | > 30 µM | 9.96 µM | > 30 µM | –
18 | CC(CNC(=O)c1ccccc1)C(=O)OCC(=O)[C@@]12OC(C)(C)O[C@@H]1C[C@H]1[C@@H]3CCC4=CC(=O)C=C[C@]4(C)[C@@]3(F)[C@@H](O)C[C@@]12C (stereo partly drawn) [TRIAMCINOLONE BENETONIDE] | > 30 µM | > 30 µM | > 30 µM | > 30 µM | > 30 µM | > 30 µM | > 30 µM | > 30 µM | –
19 | O=C(Nc1ccc(Cl)cc1)Nc1ccc(Cl)c(Cl)c1 [TRICLOCARBAN] | > 30 µM | > 30 µM | > 30 µM | > 30 µM | > 30 µM | > 30 µM | > 30 µM | > 30 µM | –
20 | CC[C@]1(O)C[C@H]2CN(CCc3c([nH]c4ccccc34)[C@@](C(=O)OC)(c3cc4c(cc3OC)N(C=O)[C@H]3[C@@](O)(C(=O)OC)[C@H](OC(C)=O)[C@]5(CC)C=CCN6CC[C@]43[C@@H]65)C2)C1 [VINCRISTINE] | > 30 µM | > 30 µM | > 30 µM | > 30 µM | > 30 µM | – | – | > 30 µM | –

Source: ChEMBL document CHEMBL5291721, “A preclinical secondary pharmacology resource illuminates target-adverse drug reaction associations of marketed drugs” (Nat Commun, 2023)
